In PubChem BioAssay (NCI):
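In this assay, cells in 96-well plates receive the compound at five concentrations for 48 hours. Endpoints are linearly interpolated between the surrounding concentrations. Here, GI50 denotes the concentration required for 50% inhibition of growth. TGI: concentration producing complete growth inhibition.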

Legend:
Assay in all cases: DTP human tumour cell line panel, 48 h
[1] = system: NCI-H226 lung
[2] = system: HCC-2998 colon
[3] = system: SW-620 colon
[4] = system: SK-MEL-2 melanoma
[5] = system: SF-295 CNS
[6] = system: SF-268 CNS
[7] = system: HT29 colon
[8] = system: MDA-MB-435
[9] = system: M14 melanoma
[10] = system: SR leukemia
[11] = system: SK-MEL-28 melanoma
[12] = system: NCI/ADR-RES ovarian
[13] = system: K-562 leukemia
[14] = system: OVCAR-8 ovarian
[15] = system: NCI-H23 lung
[16] = system: ACHN renal
[17] = system: UACC-62 melanoma
[18] = system: LOX IMVI melanoma
[19] = system: BT-549 breast
[20] = system: NCI-H460 lung
[21] = system: RPMI-8226 leukemia
[22] = system: U251 CNS
[23] = system: OVCAR-5 ovarian
[24] = system: CAKI-1 renal
[25] = system: SN12C renal
[26] = system: EKVX NSCLC
[27] = system: HCT-15 colon
[28] = system: KM12 colon
[29] = system: HL-60(TB) leukemia
[30] = system: A498 renal
[31] = system: SF-539 CNS
[32] = system: IGROV1 ovarian
[33] = system: DU-145 prostate
[34] = system: T-47D breast
[35] = system: HCT-116 colon
[36] = system: MALME-3M melanoma
[37] = system: OVCAR-3 ovarian
[38] = system: HOP-92 NSCLC
[39] = system: A549 NSCLC
[40] = system: MDA-MB-231 breast
[41] = system: RXF 393 renal
[42] = system: TK-10 renal
[43] = system: HOP-62 NSCLC
[44] = system: SNB-75 CNS
[45] = system: MOLT-4 leukemia
[46] = system: MCF7 breast
[47] = system: PC-3 prostate
[48] = system: 786-0 renal
[49] = system: SK-OV-3 ovarian
[50] = system: COLO 205 colon
[51] = system: OVCAR-4 ovarian
[52] = system: UO-31 renal
[53] = system: CCRF-CEM leukemia
[54] = system: HS 578T breast
[55] = system: UACC-257 melanoma
[56] = system: SNB-19 CNS
[57] = system: NCI-H522 lung
[58] = system: SK-MEL-5 melanoma

COC(=O)C(Br)(C(=O)OC)C(Br)C(Br)C(Br)c1ccccc1 (stereo unspecified)
GI50 [1]: 2.19 µM | TGI [1]: 5.71 µM | GI50 [2]: 17.5 µM | TGI [2]: 32 µM | GI50 [3]: 1.64 µM | TGI [3]: 3.07 µM | GI50 [4]: 14.4 µM | TGI [4]: 27.8 µM | GI50 [5]: 17 µM | TGI [5]: 33.3 µM | GI50 [6]: 5.5 µM | TGI [6]: 16.5 µM | GI50 [7]: 1.8 µM | TGI [7]: 3.34 µM | GI50 [8]: 2.48 µM | TGI [8]: 7.36 µM | GI50 [9]: 2.47 µM | TGI [9]: 6.2 µM | GI50 [10]: 2.8 µM | TGI [10]: 9.71 µM | GI50 [11]: 2.12 µM | TGI [11]: 4.99 µM | GI50 [12]: 3.28 µM | TGI [12]: 9.99 µM | GI50 [13]: 2.95 µM | TGI [13]: 9.93 µM | GI50 [14]: 3.03 µM | TGI [14]: 8.15 µM | GI50 [15]: 5.78 µM | TGI [15]: 13.9 µM | GI50 [16]: 2.2 µM | TGI [16]: 5.15 µM | GI50 [17]: 2.28 µM | TGI [17]: 6.56 µM | GI50 [18]: 1.85 µM | TGI [18]: 3.66 µM | GI50 [19]: 12.4 µM | TGI [19]: 25.3 µM | GI50 [20]: 17.2 µM | TGI [20]: 32.3 µM | GI50 [21]: 2.97 µM | TGI [21]: 9.34 µM | GI50 [22]: 3.99 µM | TGI [22]: 10.6 µM | GI50 [23]: 3.3 µM | TGI [23]: 13 µM | GI50 [24]: 1.76 µM | TGI [24]: 3.73 µM | GI50 [25]: 2.16 µM | TGI [25]: 5.3 µM | GI50 [26]: 13.9 µM | TGI [26]: 31.9 µM | GI50 [27]: 2.15 µM | TGI [27]: 6.15 µM | GI50 [28]: 7.83 µM | TGI [28]: 21 µM | GI50 [29]: 2.09 µM | TGI [29]: 6.03 µM | GI50 [30]: 15.5 µM | TGI [30]: 29.4 µM | GI50 [31]: 1.81 µM | TGI [31]: 4.09 µM | GI50 [32]: 1.06 µM | TGI [32]: 3.45 µM | GI50 [33]: 2.31 µM | TGI [33]: 5.71 µM | GI50 [34]: 2.47 µM | TGI [34]: 8.06 µM | GI50 [35]: 1.61 µM | TGI [35]: 3.01 µM | GI50 [36]: 2.09 µM | TGI [36]: 4.46 µM | GI50 [37]: 1.72 µM | TGI [37]: 3.11 µM | GI50 [38]: 3.42 µM | TGI [38]: 12.3 µM | GI50 [39]: 16.9 µM | TGI [39]: 33 µM | GI50 [40]: 3.11 µM | TGI [40]: 9.71 µM | GI50 [41]: 1.72 µM | TGI [41]: 3.26 µM | GI50 [42]: 2.35 µM | TGI [42]: 6.19 µM | GI50 [43]: 6.31 µM | TGI [43]: 15.7 µM | GI50 [44]: 2.07 µM | TGI [44]: 7.08 µM | GI50 [45]: 4.24 µM | TGI [45]: 19.7 µM | GI50 [46]: 1.67 µM | TGI [46]: 5.07 µM | GI50 [47]: 4.58 µM | TGI [47]: 17.3 µM | GI50 [48]: 2.72 µM | TGI [48]: 6.7 µM | GI50 [49]: 16.8 µM | TGI [49]: 31.9 µM | GI50 [50]: 1.87 µM | TGI [50]: 3.56 µM | GI50 [51]: 1.82 µM | TGI [51]: 3.96 µM | GI50 [52]: 1.64 µM | TGI [52]: 3.3 µM | GI50 [53]: 2 µM | TGI [53]: 7.21 µM | GI50 [54]: 6.25 µM | TGI [54]: 15 µM | GI50 [55]: 1.88 µM | TGI [55]: 4.4 µM | GI50 [56]: 14.9 µM | TGI [56]: 28.2 µM | GI50 [57]: 0.573 µM | TGI [57]: 1.53 µM | GI50 [58]: 2.71 µM | TGI [58]: 7.27 µM
